Test system: N2a cells
Test: MTT proliferation assay, rapamycin mediated cell growth inhibition of N2a cells
Assay type: cell-based, mouse
Conditions: FIG. 7
Description: FIG. 7 illustrates sensitivity of the N2a cell line to the growth inhibitory effect of rapamycin.
In a preferred embodiment, an MTT proliferation assay (see, e.g., van de Loosdrechet, et al., 1994, J. Immunol. Methods 174: 311-320; Ohno et al., 1991, J. Immunol. Methods 145:199-203; Ferrari et al., 1990, J. Immunol. Methods 131: 165-172; Alley et al., 1988, Cancer Res. 48: 589-601; Carmichael et al., 1987, Cancer Res. 47:936-942; Gerlier et al., 1986, J. Immunol. Methods 65:55-63; Mosmann, 1983, J. Immunological Methods 65:55-63) is used to screen for a candidate agent in conjunction with rapamycin to inhibit the growth of rapamycin resistant cells. The cells are treated with chosen concentrations of the candidate agent and rapamycin for 4 to 72 hours. The cells are then incubated with a suitable amount of 3-(4,5-dimethylthiazol-2-yl)-2,5-diphenyltetrazolium bromide (MTT) for 1-8 hours such that viable cells convert MTT into an intracellular deposit of insoluble formazan. After removing the excess MTT contained in the supernatant, a suitable MTT solvent, e.g., a DMSO solution, is added to dissolved the formazan. The concentration of […], which is proportional to the number of viable cells, is then measured by determining the optical density at […]. […]

In the case of CO[C@H]1C[C@@H]2CC[C@@H](C)[C@@](O)(O2)C(=O)C(=O)N2CCCC[C@H]2C(=O)O[C@H]([C@H](C)C[C@@H]2CC[C@@H](O)[C@H](OC)C2)CC(=O)[C@H](C)/C=C(\C)[C@@H](O)[C@@H](OC)C(=O)[C@H](C)C[C@H](C)/C=C/C=C/C=C/1C [rapamycin, 9,10,12,13,14,21,22,23,24,25,26,27,32,33,34,34a-hexadecahydro-9,27-dihydroxy-3-[2-(4-hydroxy-3-methoxycyclohexyl)-1-methylethyl]-10,21-dimethoxy-6,8,12,14,20,26-hexamethyl-23,27-epoxy-3H-pyrido[2,1-c][1,4]oxaazacyclohentricontine-1,5,11,28,29(4H,6H,31H)-pentone], the “rapamycin concentration at which the growth of N2a cells is completely inhibited” value (N2a cell line) is reported as ≥ 1 µM and the “rapamycin concentration at which N2a cells are sensitive to cell growth inhibition” value (mouse neuroblastoma N2a cells, MTT assay) is reported as 10 nM.

From patent US20060240021A1, “Mammalian genes involved in rapamycin resistance and tumorgenesis: rapr7 genes” (priority 2002, published 2006)
